Series [1] concerns C165S AhpC-SH, C165S AhpC-SO2H and —SO3H, WT AhpC-S—S-AhpC. As to the kind of experiment: Control experiments using AhpC-SH, AhpC-SO2/3H and WT AhpC proteins (ESI-TOF MS). The conditions noted are these: 5 mM, pH 7.4, 1.5 h at r.t. It is filed as biochemical, bacteria. The protocol:
(§1) Reduced form of C165S AhpC(C165S AhpC-SH), hyperoxidized protein (C165S AhpC-SO2H and —SO3H) and WT AhpC (disulfide crosslinked dimer, […]) were incubated with 1 (5 mM) for 1.5 h at r.t., pass through the Bio-Gel spin column and analyzed by ESI-TOF MS. C165S AhpC-SO2H and —SO3H were generated by incubating C165S AhpC-SH (250 μM) in ddH2O with 20 equivalents H2O2 for 1 h at r.t. with mixing. The excess H2O2 was removed using Bio-Gel spin columns and protein concentration was determined based on absorbance at 280 nm using the extinction coefficient 24,300 (M^−1 cm^−1).
(§2) ESI-TOF-MS analysis was performed on Agilent MSD TOF system in positive ion mode with the following settings: capillary voltage (VCap) 3500 V, nebulizer gas 30 psig, drying gas 5.0 L min^−1; fragmentor 140 V; gas temperature 325° C. The samples were injected at a flow rate of 20 μL min^−1, using a syringe pump (KD Scientific). The averaged MS spectra were deconvoluted using the Agilent MassHunter Workstation Software v B.01.03.

For series [2] the following is noted: cited from earlier work.
Series [3] addresses C165S AhpC-SOH (Salmonella typhimurium, UniProt P0A251, C166S). The experiment in a line: Labeling of C165S AhpC-SOH monitored by ESI-TOF MS. The format is biochemical, bacteria. The protocol: The C165S AhpC was reduced in 10 mM DTT at room temperature for […] and the DTT was then removed by passing the protein solution through a Bio-Gel spin column equilibrated with ddH2O. The protein concentration was measured based on absorbance at 280 nm using the extinction coefficient 24,300 (M^−1 cm^−1). Typically, 200-400 μM C165S AhpC protein was oxidized to —SOH by incubating with 2 equivalents H2O2 for […] at r.t. with mixing. The excess H2O2 was removed using Bio-Gel spin columns equilibrated with ddH2O.
The C165S AhpC-SOH protein generated as described above was diluted to 50 μM in 50 mM Bis-tris-citric acid buffer (pH 7.4) containing 5 mM (final concentration) of reagent 1. After 3 h incubation with mixing, 30 μL aliquot of reaction mixture was passed through a Bio-Gel column equilibrated with 0.1% formic acid for ESI-TOF MS analysis. […] The covalent C165S AhpC-1 adduct was incubated with 50 mM-1 M hydroxylamine (stock 1N hydroxylamine, pH 8.0-8.5, adjusted by adding 2 N NaOH or 1 N ammonium bicarbonate) for 1 h at 37° C. before passing through the Bio-Gel column for ESI-TOF MS analysis.
The C165S AhpC-SOH protein was immediately aliquot to appropriate buffers: 50 mM Bis-tris-citric acid pH 7.4, 8.5, and 9.5, and 25 mM critic acid-Na2HPO4 buffers pH 5.5, and 6.5. Final concentrations of 50 μM protein and 5 mM labeling reagents (dimedone or 2) were used for all reactions. Dimedone stock was made in 0.5 M Bis-tris and DMSO (v:v=1:1) to pre-buffer its acidity around 6.5 before adding it to the reaction buffers. Final DMSO concentration during labeling was 0.5%. At the end of the incubation time (4 h for data in FIG. 1—pH 7.4 and 8.5; 90 min for data in FIG. S5A—pH 5.5-9.5), 30 μl, reaction mixture at each pH was passed through a Bio-Gel spin column and analyzed by ESI-TOF MS. Data were fit using SigmaPlot 11.0 and the user defined equation below to obtain the pKa: […]
The C165S AhpC-SOH was incubated with increasing concentrations of 2 (0.2, 0.5, 1, 5, and 10 mM) for 2 h in 50 mM Bis-tris-citric acid (pH 7.4) at r.t. The reaction mixture (30 μL) was passed through a Bio-Gel spin column and analyzed by ESI-TOF MS. Data were fit to a hyperbolic equation to determine K0.5 using SigmaPlot 11.0.
C165S AhpC-SOH protein was first labeled by 2 at pH 9.5 for 1 h and passed successively through three Bio-Gel spin columns equilibrated with PBS to remove the unreacted 2. Near 100% labeling of AhpC was configured by ESI-TOF MS. The C165S AhpC-2 adduct concentration was measured at 280 nm using the extinction coefficient 24,300 (M^−1 cm^−1) and then diluted in PBS to a final concentration of 50 μM. Click reaction was conducted by adding the following reagents in order: biotin-OEG11-azide (1 mM, final, from 50 mM stock in DMSO), TCEP (2 mM, final, from 100 mM stock freshly made in H2O), TBTA (0.1 mM, final, from 1.7 mM stock made in 1:4 DMSO/t-butanol) and CuSO4 (1 mM, final, from 50 mM stock in H2O). The mixture was incubated at r.t. for 2 h and then 30 μL of reaction mixture was passed through a Bio-Gel column equilibrated with 0.1% formic acid for ESI-TOF MS analysis. The biotin moiety was removed by hydroxylamine treatment as described above and the reaction products were analyzed by ESI-TOF MS.
as §2

Series [4] has as its system SCC-61 cells. The experiment in a line: MTT assay (cell viability). It is filed as cell-based. Particulars: 1 h incubation, 1-20 mM. The protocol:
MTT (3-(4,5-dimethylthiazol-2-yl)-2,5-diphenyltetrazolium bromide) assay was used to test the SCC-61 cell viability when incubated with dimedone or 2 for 1 h. SCC-61 cells were seeded in a 96-well plate at a density of 5,000 per well in 50 μL, and incubated overnight. Dimedone or 2 (50 μL) was added to each well at final concentrations of 1, 2.5, 5, 10, and 20 mM. Plates were then incubated for 1 h at 37° C. in a humidified atmosphere with 5% CO2. MTT labeling reagent (Roche; 5 mg/ml in PBS, 10 μL) was added to each well, and the plate was incubated for 4 h at 37° C. The solubilization solution (100 μL) was then added to each well for overnight incubation at 37° C. The following day, absorbance was measured at 570 nm and all experiments were repeated twice. The resulting curves were fitted using SigmaPlot software to a sigmoidal dose-response equation to determine the IC50. The IC50 represents the concentration of chemical probe causing a 50% reduction in cell viability.
In general terms: Tetrazolium assays rely on reduction of a dye to a coloured formazan, in cell work by metabolically active cells.

Series [5] relates to SCC-61 cells. The experiment in a line: Cell membrane permeability assay. It is filed as cell-based. The conditions noted are these: 10 mM, 2 h. On the procedure:
SCC-61 cells were cultured to 95% confluence in complete media (DMEM/F12 High Glucose (Invitrogen) supplemented with 10% fetal bovine serum (FBS, Invitrogen), 1% penicillin & streptomycin (Invitrogen)). Cells were washed with HBSS buffer (pH 7.4) three times and incubated with 10 mM probe 2 in HBSS at r.t. for 2 h. Cells incubated in HBSS without 2 were included as controls. After the incubation, cells were carefully washed by HBSS three times to remove excess 2 and lysed with the lysis buffer described above except in the absence of 2. Lysates were incubated at r.t. for additional 2 h to ensure complete labeling prior to the addition of cold MeOH/CHCl3 for protein precipitation. The denatured proteins were resolubilized in 1% SDS (in PBS) for the click reaction, which was then followed by Western-blot analysis as described above.

Series [6] deals with —SOH proteins in NIH 3T3 cell lysates. As to the kind of experiment: Labeling of —SOH proteins in NIH 3T3 cell lysates (click biotinylation, Western blot). The conditions noted are these: for labeling of lysate proteins (streptavidin-HRP signal): 5 mM. It is filed as biochemical. On the procedure: NIH 3T3 cells were cultured to 95% confluence in complete media (DMEM High Glucose (Invitrogen) supplemented with 10% fetal bovine serum (FBS, Invitrogen) and 1% penicillin & streptomycin (Invitrogen)). Cells were washed with PBS three times and lysed using 5 mM of 2 in lysis buffer (50 mM NaCl, 1 mM EDTA, 1 mM EGTA, 10% Glycerol, 1% Triton X-100, 25 mM NaF, 10 μM ZnCl2, supplemented with protease and phosphatase inhibitor tablets (Roche)). Lysis buffer was made in 50 mM citric acid/Na2HPO4 when labeling was carried out at pH 5.5 and 7.4, and in 50 mM NaHCO3/Na2CO3 for labeling at pH 9.5. Lysates were incubated for 2 h at r.t. and then quenched by adding cold MeOH/CHCl3^[1] to remove excess 2.
Cells were lysed using lysis buffer (pH 7.4) supplemented with 2 (5 mM) as described above. The labeling was allowed to proceed at r.t. for 2 h before quenching with MeOH/CHCl3. Protein pellets precipitated from 200 μL lysate were resuspended in 50 μL, 1% SDS in PBS, sonicated for 30 s and finally heated at 95° C. for 5 mins. Protein concentration was measured using Bio-Rad protein assay (SDS concentration in the assay 0.001%) and normalized to the same concentration. Click reaction was performed using the solubilized lysate proteins according to the procedures described above. After 2 h incubation, 15 μL reaction aliquot from each sample was mixed with 5 μL sample buffer (with β-mecaptoethanol) for SDS-PAGE and Western blot analysis. Biotinylated proteins were probed using Streptavidin-HRP. In control experiments, lysates were pre-reduced with 10 mM TCEP at pH 7.4 for 1 h at r.t. before the addition of 2; lysates prepared in the absence of 2 with or without click reaction were also included in the SDS-PAGE and Western blot analysis.

Series [7] addresses C165S AhpC-SH, C165S AhpC-SO2H and —SO3H, WT AhpC-S—S-AhpC (Salmonella typhimurium, UniProt P0A251, C166S). As to the kind of experiment: Control experiments using AhpC-SH, AhpC-SO2/3H and WT AhpC proteins (ESI-TOF MS). The format is biochemical, bacteria. The conditions noted are these: pH 9.5. On the procedure:
as §1, §2

The subject of series [8] is NIH 3T3 cells. The experiment in a line: DCF assay (intracellular ROS level). It is filed as cell-based. Particulars: 10 mM, 2 h. The protocol: NIH 3T3 cells cultured in 60-mm dishes were serum starved overnight and incubated with 10 mM dimedone, reagent 2 or 1% DMSO individually for 2 h. 5-(and-6)-carboxy-2′,7′-dichloro-dihydrofluorescein diacetate (carboxy-H2DCFDA) (100 μM; Invitrogen) was added to cells at room temperature after the incubation. The cells were then immediately washed twice with PBS and visualized with Arcturus PixCell II laser capture microscope using 20× objective.

What is called IC50 is the concentration needed to halve the response being measured.

C165S AhpC-SOH, sequence (P0A251 whole entry C166S): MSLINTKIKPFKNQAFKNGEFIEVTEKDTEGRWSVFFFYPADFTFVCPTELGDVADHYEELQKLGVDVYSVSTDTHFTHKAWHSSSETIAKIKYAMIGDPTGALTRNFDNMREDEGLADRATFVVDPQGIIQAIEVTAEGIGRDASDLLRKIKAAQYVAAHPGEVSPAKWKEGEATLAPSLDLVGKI
C165S AhpC-SH, C165S AhpC-SO2H and —SO3H, WT AhpC-S—S-AhpC (Salmonella typhimurium, UniProt P0A251, C166S), sequence (P0A251 2-187 C166S): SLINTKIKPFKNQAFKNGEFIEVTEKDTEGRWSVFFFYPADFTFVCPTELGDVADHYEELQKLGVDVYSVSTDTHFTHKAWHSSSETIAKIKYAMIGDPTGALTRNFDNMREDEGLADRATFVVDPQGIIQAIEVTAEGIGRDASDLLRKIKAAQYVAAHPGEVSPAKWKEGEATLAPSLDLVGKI

Take `COC(=O)CC(C)=O` [compound 1, methyl acetoacetate]: the “reaction with —SH, —S—S—, —SO2/3H, or other amino acid residues” value in series [1] is listed as “did not react”. For the same molecule, in series [2] (in aqueous solution), the enol content is listed as 7.4%. For the same molecule, the “labeling of C165S AhpC-SOH (adduct product peak)” value in series [3] (AhpC 50 uM, reagent 5 mM, pH 7.4, 3 h) was “labeling of C165S AhpC-SOH”.
For the molecule `C#CCCOC(=O)CC(C)=O` [compound 2, but-3-yn-1-yl 3-oxobutanoate], the “effect on cell viability” value in series [4] is “did not significantly affect cell viability”. In addition, the “cell permeability (biotin signal after click reaction)” value in series [5] is listed as “cell permeable”. The “labeling of lysate proteins (streptavidin-HRP signal)” value in series [6] (pH 5.5) is listed as “no visible signal”; in series [6] (pH 7.4 and 9.5), “Nearly equal labeling”. The “selectivity of labeling in cell lysates” value in series [6] (pH 7.4, lysates pre-reduced with TCEP as control) was “selective towards —SOH”. Besides, the “adduct formation with reduced form of C165S AhpC” value in series [7] is recorded as “no adduct formation”. The “reactivity with AhpC-SOH as pH increases” value in series [3] (higher pH (up to 9.5)) is on record as “becomes highly reactive”. Also, in series [3] (pH 5.5 and 6.5), the “reactivity with AhpC-SOH at low pH” value is reported as “reacts very slowly”. Moreover, the “K0.5 (hyperbolic fit of labeling vs probe concentration)” value in series [3] (pH 7.4, 2 h, r.t., 0.2-10 mM probe) was determined as 3.0 ± 0.3 mM. The “labeling of —SOH compared with dimedone” value in series [3] (pH 7.4 and 8.5, 50 μM protein, 5 mM reagent, 4 h) is recorded as “Increased labeling”. Moreover, in series [8], the “intracellular ROS level (DCF)” value is given as “did not alter the basal level of ROS”.
Turning to `CC1(C)CC(=O)CC(=O)C1` [dimedone, 5,5-dimethyl-1,3-cyclohexanedione, reference compound], the concentration for half-maximal inhibition (IC50) in series [4] (read-out: IC50 (50% reduction in cell viability)) stood at 5.3 ± 0.2 mM. Also, in series [2] (reported), the keto-enol tautomerism state entry is “exclusively in the enol state” and the “pKa for the carbon between keto groups” value is on record as 4.3. Besides, in series [3] (data not shown), the “reactivity at mildly acidic or basic conditions compared to pH 7.4” value is given as “slight increase in reactivity”. Further, the “intracellular ROS level (DCF)” value in series [8] is listed as “significant increase in ROS”.

The record behind these values is US9023653B2, “Method of labeling sulfenic acid-containing proteins and peptides” (Wake Forest University Health Sciences, priority 2011, dated 2015).
